# Results reported in ChEMBL document CHEMBL1151039, “Muscarinic antagonist activity of 3-(5-alkoxy-oxazol-2-yl)-1,2,5,6-tetrahydropyridines” (Bioorg Med Chem Lett, 1994).
# What was measured:
# [1] = molecular target: Muscarinic acetylcholine receptor; test: Inhibition of [3H]pirenzepine binding to muscarinic receptor in rat cortical homogenates
# Mus musculus = test: In vivo antagonist activity measured as inhibition of oxotremorine induced tremors in mice at 1 mg/kg of ip administration; type: functional; details: route intraperitoneal
# Rattus norvegicus = organism: Rattus norvegicus; test: In vitro inhibition of acetylcholine induced phosphatidyl inositol hydrolysis in a rat cerebral cortex slice preparation; type: functional
Compound,Ki [1] [nM],AD50 (Mus musculus) [mg/kg],IC50 (Rattus norvegicus) [nM]
CCCOc1oc(C2=CCCN(C)C2)nc1C(C)CC (stereo not given),0.8,,
COc1oc(C2=CCCN(C)C2)nc1Cc1ccccc1,16,,
COc1cnc(C2=CCCN(C)C2)o1,> 1000,,
CCOc1oc(C2=CCCN(C)C2)nc1C(C)CC (stereo not given),0.8,,
CCCCCCOc1oc(C2=CCCN(C)C2)nc1C(C)CC (stereo not given),22,,
CCCCc1nc(C2=CCCN(C)C2)oc1OC,11,,
COc1oc(C2=CCCN(C)C2)nc1C,90,,
CCC(C)c1nc(C2=CCCN(C)C2)oc1OC (stereo not given),2,,
CN1[C@@H]2C[C@@H](OC(=O)[C@H](CO)c3ccccc3)C[C@H]1[C@@H]1O[C@@H]12 [SCOPOLAMINE],,0.1,8.9

# The next lines start with results.
Ki [1] [nM],Compound,AD50 (Mus musculus) [mg/kg],IC50 (Rattus norvegicus) [nM]
30,CCc1nc(C2=CCCN(C)C2)oc1OC,,
10,COc1oc(C2=CCCN(C)C2)nc1C(C)C,,
1.5,CCCCOc1oc(C2=CCCN(C)C2)nc1C(C)CC (stereo not given),,
25,COc1oc(C2=CCCN(C)C2)nc1CC(C)C,,
33,CCOc1oc(C2=CCCN(C)C2)nc1C,,
